17 molecules from PubChem BioAssay (NCI) can be followed below.

Test systems include LXFL 529 NSCLC; SN12C renal; HCT-15 colon; HCT-116 colon; XF 498 CNS; SNB-75 CNS; RPMI-8226 leukemia; M14 melanoma; PC-3 prostate; MDA-MB-435.
Holding throughout (experiment): NCI anticancer screen, dose series, 48 h

Values joined by “and” are separate entries in the source; they are usually repeats but may differ in a detail not shown here. Identical values can stand only once.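 96-well plates; 48 h exposure; 5 concentrations. Endpoints by linear interpolation between flanking doses. Not reached: highest tested concentration assigned. GI50 marks 50% less growth. TGI is the concentration that stops growth completely.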

With `CCCCCCCCc1cc2c(O)c(c1)Cc1cc(CCCCCCCC)cc(c1O)Cc1cc(CCCCCCCC)cc(c1O)Cc1cc(CCCCCCCC)cc(c1O)Cc1cc(CCCCCCCC)cc(c1O)Cc1cc(CCCCCCCC)cc(c1O)C2`, the TGI in the experiment on LXFL 529 NSCLC, in the experiment with SN12C renal, in the experiment on HCT-15 colon, in the experiment with HCT-116 colon, in the experiment on XF 498 CNS and with SNB-75 CNS was over 100 µM throughout.
As for `Cc1cc2c(cc1C)[n+](=O)cc(C(=O)C/C(=N/NC(=S)NN)C(=O)Nc1cccc(C(F)(F)F)c1)n2[O-]`, the TGI in the experiment with LXFL 529 NSCLC, in the experiment on RPMI-8226 leukemia, in the experiment with M14 melanoma, in the experiment with SN12C renal, in the experiment with HCT-15 colon and with HCT-116 colon was over 100 µM in each case. Moreover, the TGI in the experiment with SNB-75 CNS is over 100 µM.
As for `O=C1C/C(Br)=C\c2ccccc2-c2ccccc21`, the TGI with LXFL 529 NSCLC is 3.5 µM; in the experiment on RPMI-8226 leukemia it was 5.28 µM; in the experiment with M14 melanoma, 5.27 µM; in the experiment with SN12C renal, 4.8 µM; in the experiment with HCT-15 colon, 3.36 µM; with HCT-116 colon it was 3.71 µM. For the same molecule, the values for the TGI with XF 498 CNS and in the experiment with SNB-75 CNS were 3.7 µM and 7.65 µM, respectively.
Regarding `O=C1C=C(c2c(O)ccc3ccccc23)c2cc(O)ccc2C1=O`, the TGI in the experiment on LXFL 529 NSCLC is 19.5 µM; in the experiment on RPMI-8226 leukemia it was over 100 µM; in the experiment on M14 melanoma, 29.9 µM; in the experiment on SN12C renal, 32.4 µM; in the experiment on HCT-15 colon, 33 µM; in the experiment on HCT-116 colon, 30.1 µM. For the same molecule, the TGI stood at 23.3 µM with XF 498 CNS and 42.6 µM in the experiment with SNB-75 CNS.
Turning to `CC(=O)N/C(=C\c1ccccc1/C=C(\NC(C)=O)c1nc2cc(C)c(C)cc2[nH]1)c1nc2cc(C)c(C)cc2[nH]1`, the TGI came to 30.8 µM with LXFL 529 NSCLC; 64.7 µM in the experiment on RPMI-8226 leukemia; 23.9 µM in the experiment with M14 melanoma; 35.3 µM with SN12C renal; 88.2 µM with HCT-116 colon; 32.9 µM with XF 498 CNS. Moreover, the TGI with SNB-75 CNS was over 100 µM.
On to `COc1ccc(/C=C\c2cc(OC)c(OC)c(OC)c2)cc1OCC(=O)O`, for which the TGI is over 100 µM with LXFL 529 NSCLC; over 100 µM in the experiment with RPMI-8226 leukemia; 62.9 µM in the experiment with M14 melanoma; over 91.3 µM with PC-3 prostate; over 100 µM in the experiment on SN12C renal; 80.8 µM with HCT-15 colon. For the same molecule, the TGI in the experiment on HCT-116 colon is 31.5 µM; in the experiment on SNB-75 CNS it was over 58.7 µM; with MDA-MB-435 it was 3.27 µM.
For the molecule `O=Cc1cc2c(cc1-c1cc3c(cc1C=O)OCO3)OCO2`, the TGI with LXFL 529 NSCLC, in the experiment with RPMI-8226 leukemia, in the experiment with M14 melanoma, in the experiment on SN12C renal, with HCT-15 colon and with HCT-116 colon was over 100 µM in each case. The same molecule gave a TGI in the experiment with SNB-75 CNS of over 100 µM.
With `CC[C@@H]1NC(C(=O)OC)Cc2c1[nH]c1ccccc21` (some centres undefined), the TGI in the experiment on LXFL 529 NSCLC, with M14 melanoma, in the experiment with SN12C renal, with HCT-15 colon, in the experiment with HCT-116 colon and in the experiment with SNB-75 CNS was over 100 µM in each case.
With `CCOC(=O)Cc1csc(Nc2ccccc2[N+](=O)[O-])n1`, the TGI with LXFL 529 NSCLC, with RPMI-8226 leukemia, with M14 melanoma, with SN12C renal, with HCT-15 colon and in the experiment with HCT-116 colon was over 100 µM throughout. This molecule came in with a TGI in the experiment on SNB-75 CNS of over 100 µM.
For the molecule `Cc1nc2c(N)ncnc2o1`, the TGI in the experiment with LXFL 529 NSCLC, in the experiment on M14 melanoma, with SN12C renal, with HCT-15 colon, in the experiment with HCT-116 colon and in the experiment with SNB-75 CNS was over 100 µM in each case.
As for `CC1=C(C(=O)Nc2ccccc2)C(c2ccc(Cl)c(Cl)c2)C(C(=O)Nc2ccccc2)=C(C)N1`, the TGI with LXFL 529 NSCLC came out at 25.6 µM; in the experiment with M14 melanoma, 25.1 µM; in the experiment with SN12C renal, 28.5 µM; in the experiment on HCT-15 colon, 22.9 µM; with HCT-116 colon it was 22.3 µM; in the experiment with XF 498 CNS it was 30.6 µM. The TGI in the experiment with SNB-75 CNS is 35 µM.
Regarding `O=C1c2cccc3cccc(c23)C(=O)N1CCN(CCO)CCO`, the TGI in the experiment on LXFL 529 NSCLC is over 100 µM; in the experiment with RPMI-8226 leukemia it was 56.4 µM; in the experiment on M14 melanoma it was 46.8 µM; in the experiment on SN12C renal, 74.3 µM; in the experiment on HCT-15 colon it was 56.2 µM; in the experiment on HCT-116 colon, 46.6 µM. Moreover, the TGI in the experiment on XF 498 CNS is 66.5 µM; in the experiment on SNB-75 CNS, over 100 µM.
`CCCCCCCCCCCC[N+]12CC[N+](CCN)(CC1)CC2`: the TGI with LXFL 529 NSCLC, in the experiment on RPMI-8226 leukemia, in the experiment on M14 melanoma, with SN12C renal, in the experiment with HCT-116 colon and in the experiment on XF 498 CNS was over 100 µM in each case. This molecule displayed a TGI with SNB-75 CNS of over 100 µM.
Consider `c1ccc2c(c1)CCc1c(-c3ccncc3)n[nH]c1-2`, for which the TGI in the experiment with LXFL 529 NSCLC was 66.2 µM; with RPMI-8226 leukemia, 84.2 µM; in the experiment with M14 melanoma, 47.9 µM; with SN12C renal, over 100 µM; in the experiment on HCT-15 colon, 87.4 µM; in the experiment on HCT-116 colon, 46.2 µM. In addition, the TGI worked out at 22.5 µM in the experiment on XF 498 CNS and 77.7 µM in the experiment on SNB-75 CNS.
As to `C/C(=N\NC(N)=O)c1sc(-c2nc(C)c(/C(C)=N/NC(N)=O)s2)nc1C`, the TGI in the experiment with LXFL 529 NSCLC is over 100 µM; in the experiment on RPMI-8226 leukemia it was over 100 µM; with M14 melanoma it was over 100 µM; in the experiment with SN12C renal it was over 100 µM; in the experiment on HCT-15 colon, 46.1 µM; with XF 498 CNS it was over 100 µM. This molecule came in with a TGI in the experiment on SNB-75 CNS of over 100 µM.
For the molecule `O=c1[nH]c(=O)n(C2CC(O)C(CO)O2)cc1OS(=O)(=O)C(F)(F)F` (centres undefined), the TGI with LXFL 529 NSCLC, with RPMI-8226 leukemia, in the experiment on M14 melanoma, in the experiment on SN12C renal, in the experiment on HCT-15 colon and with HCT-116 colon was over 100 µM in each case. Also, the TGI in the experiment with XF 498 CNS and in the experiment on SNB-75 CNS was over 100 µM each time.
On to `NC(=S)N/N=C/c1ncccc1O`, for which the GI50 was 5.92 µM and 2.07 µM in the experiment with RPMI-8226 leukemia; 0.684 µM in the experiment with M14 melanoma; 0.895 µM with PC-3 prostate; 2.04 µM with SN12C renal; 2.67 µM with HCT-15 colon; 2.86 µM in the experiment on HCT-116 colon. The GI50 was 4.88 µM in the experiment with XF 498 CNS, 2.16 µM with SNB-75 CNS and 1.33 µM in the experiment on MDA-MB-435. The TGI was over 1000 µM with RPMI-8226 leukemia; 4.72 µM and 2.69 µM in the experiment with M14 melanoma; over 1000 µM in the experiment with PC-3 prostate; 24.1 µM and 45.2 µM in the experiment on SN12C renal; over 439 µM with HCT-15 colon; over 391 µM in the experiment on HCT-116 colon. The TGI in the experiment on XF 498 CNS was 39.7 µM and 5.52 µM; in the experiment with SNB-75 CNS, > 51.9 µM and 60.6 µM; in the experiment on MDA-MB-435, over 471 µM.
